The numbers were not newly measured in patent US20030044472A1, “METHOD AND SYNERGISTIC COMPOSITION FOR TREATING ATTENTION DEFICIT/HYPERACTIVITY DISORDER” (DexGen-Intellectual Property, Homocysteine, Inc., priority 2001, published 2003), which cites them from elsewhere.

In series [1] the test system is ADHD children. Particulars: double blind clinical study.
In series [2] the test system is ADHD children. Particulars: supplements at 6 mg/lb. of the child.

Structures are written as SMILES. Counter-ions that a name gives are not always drawn.

Regarding `COC(=O)C(c1ccccc1)C1CCCCN1` (centres unmarked) [Ritalin, methylphenidate hydrochloride], the “test score improvements vs. placebo” value in the series with ADHD children [1] was “significant test score improvements”.
In the case of `[Mg+2]` [magnesium], the hyperactivity result with ADHD children [2] is recorded as “a decrease in hyperactivity”.
